In assay [1] the test system is Fusarium oxysporum f. sp. melongenae. In words: Antifungal activity against Fusarium oxysporum f. sp. melongenae assessed as spore germination rate at 100 ppm relative to untreated control. The assay is classed as functional.
The next assay has as its system Verticillium dahliae. In words: Antifungal activity against Verticillium dahliae assessed as spore germination rate at 100 ppm relative to untreated control. The assay is classed as functional.

`C=C(C)[C@@H]1CC[C@]2(C1)[C@H](C)C[C@H](O)C[C@H]2O` [15-NOREPILUBIMINOL]: the Activity was 113% in assay [1] and 57% in the assay with Verticillium dahliae.

Consider `C=C(C)[C@@H]1CC[C@]2(C1)[C@H](C)C[C@H](O)C[C@@H]2O` [15-NORLIBIMINOL], for which the Activity in assay [1] is 114%; with Verticillium dahliae, 52%.

Regarding `C=C(C)[C@@H]1CC[C@]2(C1)[C@H](C)C[C@H](O)C[C@H]2C=O` [EPILUBIMIN], the figures for the Activity (in assay [1]; in the assay with Verticillium dahliae) were 30% and 54%, respectively.

With `C=C(C)[C@@H]1CC[C@]2(C1)[C@H](C)C[C@H](O)C[C@@H]2C=O` [LUBIMIN], the Activity in assay [1] is listed as 5%; with Verticillium dahliae, 42%.

The values are drawn from ChEMBL document CHEMBL3044993, “Structural confirmation of 15-norlubiminol and 15-norepilubiminol, isolated from Solanum aethiopicum, by chemical conversion from lubimin and epilubimin, and their antifungal activity” (2001).
